Experimental data from ChEMBL document CHEMBL1136277, “(R)-3-(N-methylpyrrolidin-2-ylmethyl)-5-(1,2,3,6-tetrahydropyridin-4-yl)-1H-indole derivatives as high affinity h5-HT1B/1D ligands” (Bioorg Med Chem Lett, 2003).

Experiments:
[1] = target: T1, 5-hydroxytryptamine receptor 1B (Homo sapiens, UniProt P28222); assay: Selectivity ratio against cloned human 5-HT1B receptor to that of h5-HT1D receptor
[2] = target: T1, 5-hydroxytryptamine receptor 1B; assay: Binding affinity towards cloned human 5-hydroxytryptamine 1B receptor
[3] = target: 5-hydroxytryptamine receptor 1D (Homo sapiens, UniProt P28221); assay: Binding affinity towards cloned human 5-hydroxytryptamine 1D receptor
Chain of 5-hydroxytryptamine receptor 1D (P28221 whole entry): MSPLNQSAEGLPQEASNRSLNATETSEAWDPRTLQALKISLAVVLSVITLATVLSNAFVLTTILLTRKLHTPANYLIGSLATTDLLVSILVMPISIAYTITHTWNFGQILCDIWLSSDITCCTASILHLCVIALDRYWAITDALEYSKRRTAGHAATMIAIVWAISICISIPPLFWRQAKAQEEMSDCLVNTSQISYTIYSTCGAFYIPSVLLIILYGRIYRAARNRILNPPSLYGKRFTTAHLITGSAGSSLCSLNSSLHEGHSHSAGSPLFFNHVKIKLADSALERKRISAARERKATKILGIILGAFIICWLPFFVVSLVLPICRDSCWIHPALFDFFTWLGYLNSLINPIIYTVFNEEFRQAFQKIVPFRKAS

T1 sequence (P28222 whole entry): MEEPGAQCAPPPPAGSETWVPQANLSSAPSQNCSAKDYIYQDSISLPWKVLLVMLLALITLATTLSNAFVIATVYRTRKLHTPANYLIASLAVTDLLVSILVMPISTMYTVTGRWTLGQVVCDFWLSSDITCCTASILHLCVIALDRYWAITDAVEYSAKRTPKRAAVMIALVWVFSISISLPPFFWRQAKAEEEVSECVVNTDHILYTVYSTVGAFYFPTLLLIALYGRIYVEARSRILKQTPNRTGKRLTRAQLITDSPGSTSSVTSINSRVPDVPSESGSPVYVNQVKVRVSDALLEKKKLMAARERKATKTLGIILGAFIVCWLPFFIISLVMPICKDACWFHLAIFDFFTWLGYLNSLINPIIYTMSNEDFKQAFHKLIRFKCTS

Row | SMILES | Selectivity [1] | Ki [2] [nM] | Ki [3] [nM]
1 | CN1CCC[C@@H]1Cc1c[nH]c2ccc(C3=CCN(C(=O)Nc4ccc(Cl)cc4)CC3)cc12 | 10 | 3.8 | 0.38
2 | CN1CCC[C@@H]1Cc1c[nH]c2ccc(C3=CCN(/C(S)=N/c4ccc(Cl)cc4)CC3)cc12 | 2.7 | 1.5 | 0.56
3 | CN1CCC[C@@H]1Cc1c[nH]c2ccc(C3=CCN(C(=O)NC4CCCCC4)CC3)cc12 | 4.6 | 14 | 3
4 | CN(C)CCc1c[nH]c2ccc(C3=CCN(C)CC3)cc12 | – | 610 | 8
5 | CN1CCC[C@@H]1Cc1c[nH]c2ccc(C3=CCN(C(=S)NC4CCCCC4)CC3)cc12 | – | 13 | 2
6 | COc1ccc(S(=O)(=O)N2CC=C(c3ccc4[nH]cc(C[C@H]5CCCN5C)c4c3)CC2)cc1 | 19 | 14 | 0.76
7 | CN1CCC[C@@H]1Cc1c[nH]c2ccc(C3=CCN(S(=O)(=O)c4cccc5ccccc45)CC3)cc12 | 26 | 23 | 0.88
8 | Cc1ccc(NC(=O)N2CC=C(c3ccc4[nH]cc(C[C@H]5CCCN5C)c4c3)CC2)cc1 | 9.7 | 3 | 0.31
9 | Cc1ccc(NC(=S)N2CC=C(c3ccc4[nH]cc(C[C@H]5CCCN5C)c4c3)CC2)cc1 | – | 1.5 | 0.38
10 | CN1CCC[C@@H]1Cc1c[nH]c2ccc(C3=CCN(/C(S)=N/c4ccccc4)CC3)cc12 | 8.5 | – | –
11 | COc1ccc(NC(=S)N2CC=C(c3ccc4[nH]cc(C[C@H]5CCCN5C)c4c3)CC2)cc1 | 5.2 | 2.4 | 0.46
12 | CN1CCC[C@@H]1Cc1c[nH]c2ccc(C3=CCN(/C(S)=N/C45C[C@H]6C[C@@H](C4)C[C@@H](C5)C6)CC3)cc12 | 7 | 39 | 5.6
13 | CN1CCC[C@@H]1Cc1c[nH]c2ccc(C3=CCN(/C(S)=N/C4CCCCC4)CC3)cc12 | 6.3 | – | –
14 | Cc1ccc(S(=O)(=O)N2CC=C(c3ccc4[nH]cc(C[C@H]5CCCN5C)c4c3)CC2)cc1 | 21 | 17 | 0.8
15 | Cc1ccc(/N=C(\S)N2CC=C(c3ccc4[nH]cc(C[C@H]5CCCN5C)c4c3)CC2)cc1 | 3.9 | – | –
16 | CN1CCC[C@@H]1Cc1c[nH]c2ccc(C3=CCN(C(=O)Nc4ccccc4)CC3)cc12 | 11 | 4.8 | 0.45
17 | COc1ccc(NC(=O)N2CC=C(c3ccc4[nH]cc(C[C@H]5CCCN5C)c4c3)CC2)cc1 | 10 | 4.2 | 0.42
18 | CN1CCC[C@@H]1Cc1c[nH]c2ccc(C3=CCN(/C(S)=N/c4cccc5ccccc45)CC3)cc12 | 4.6 | 3.2 | 0.7
19 | CN1CCC[C@@H]1Cc1c[nH]c2ccc(C3=CCN(C(=O)NC45C[C@H]6C[C@@H](C4)C[C@@H](C5)C6)CC3)cc12 | 2.8 | 11 | 4
20 | CN1CCC[C@@H]1Cc1c[nH]c2ccc(C3=CCN(C(=S)Nc4ccccc4)CC3)cc12 | – | 5.8 | 0.68
21 | CN1CCC[C@@H]1Cc1c[nH]c2ccc(C3=CCN(C(=O)Nc4cccc5ccccc45)CC3)cc12 | 8.4 | 3.8 | 0.45
